Reference: patent publication US20230073777A1, “CYCLIC-AMP RESPONSE ELEMENT BINDING PROTEIN (CBP) AND/OR ADENOVIRAL E1A BINDING PROTEIN OF 300 KDA (P300) DEGRADATION COMPOUNDS AND METHODS OF USE” (CULLGEN (SHANGHAI), INC., priority 2019, published 2023)

What was measured:
LNCaP cells = assay: LNCaP cell viability assay (CellTiter-Glo); type: cell-based; conditions: Homo sapiens, 72 h; LNCaP prostate cancer cell viability inhibition, 3 days, CellTiter-Glo (Table 2)
How it was run: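 Three-day treatment of LNCaP cells (5000 per well) across a 12-point, 3-fold dilution series starting at 10 μM. ATP luminescence (CellTiter-Glo) relative to untreated controls gave dose-response curves fitted nonlinearly for IC50.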

P300 = P300 (Homo sapiens, UniProt Q09472); assay: Immunoblotting of P300 protein levels in LNCaP or 22RV1 cells; type: cell-based; parameters: LNCaP or 22RV1 cells that express CBP/P300 proteins were treated with GNE-781 or the bivalent compounds; endogenous in cells; host or cells: LNCaP (clone FGC) or 22RV1 cells; conditions: percentage of inhibition of p300 at 10 nM (Table 2); read-out: Degradation (10 nM)
Chain of P300 (Q09472 whole entry): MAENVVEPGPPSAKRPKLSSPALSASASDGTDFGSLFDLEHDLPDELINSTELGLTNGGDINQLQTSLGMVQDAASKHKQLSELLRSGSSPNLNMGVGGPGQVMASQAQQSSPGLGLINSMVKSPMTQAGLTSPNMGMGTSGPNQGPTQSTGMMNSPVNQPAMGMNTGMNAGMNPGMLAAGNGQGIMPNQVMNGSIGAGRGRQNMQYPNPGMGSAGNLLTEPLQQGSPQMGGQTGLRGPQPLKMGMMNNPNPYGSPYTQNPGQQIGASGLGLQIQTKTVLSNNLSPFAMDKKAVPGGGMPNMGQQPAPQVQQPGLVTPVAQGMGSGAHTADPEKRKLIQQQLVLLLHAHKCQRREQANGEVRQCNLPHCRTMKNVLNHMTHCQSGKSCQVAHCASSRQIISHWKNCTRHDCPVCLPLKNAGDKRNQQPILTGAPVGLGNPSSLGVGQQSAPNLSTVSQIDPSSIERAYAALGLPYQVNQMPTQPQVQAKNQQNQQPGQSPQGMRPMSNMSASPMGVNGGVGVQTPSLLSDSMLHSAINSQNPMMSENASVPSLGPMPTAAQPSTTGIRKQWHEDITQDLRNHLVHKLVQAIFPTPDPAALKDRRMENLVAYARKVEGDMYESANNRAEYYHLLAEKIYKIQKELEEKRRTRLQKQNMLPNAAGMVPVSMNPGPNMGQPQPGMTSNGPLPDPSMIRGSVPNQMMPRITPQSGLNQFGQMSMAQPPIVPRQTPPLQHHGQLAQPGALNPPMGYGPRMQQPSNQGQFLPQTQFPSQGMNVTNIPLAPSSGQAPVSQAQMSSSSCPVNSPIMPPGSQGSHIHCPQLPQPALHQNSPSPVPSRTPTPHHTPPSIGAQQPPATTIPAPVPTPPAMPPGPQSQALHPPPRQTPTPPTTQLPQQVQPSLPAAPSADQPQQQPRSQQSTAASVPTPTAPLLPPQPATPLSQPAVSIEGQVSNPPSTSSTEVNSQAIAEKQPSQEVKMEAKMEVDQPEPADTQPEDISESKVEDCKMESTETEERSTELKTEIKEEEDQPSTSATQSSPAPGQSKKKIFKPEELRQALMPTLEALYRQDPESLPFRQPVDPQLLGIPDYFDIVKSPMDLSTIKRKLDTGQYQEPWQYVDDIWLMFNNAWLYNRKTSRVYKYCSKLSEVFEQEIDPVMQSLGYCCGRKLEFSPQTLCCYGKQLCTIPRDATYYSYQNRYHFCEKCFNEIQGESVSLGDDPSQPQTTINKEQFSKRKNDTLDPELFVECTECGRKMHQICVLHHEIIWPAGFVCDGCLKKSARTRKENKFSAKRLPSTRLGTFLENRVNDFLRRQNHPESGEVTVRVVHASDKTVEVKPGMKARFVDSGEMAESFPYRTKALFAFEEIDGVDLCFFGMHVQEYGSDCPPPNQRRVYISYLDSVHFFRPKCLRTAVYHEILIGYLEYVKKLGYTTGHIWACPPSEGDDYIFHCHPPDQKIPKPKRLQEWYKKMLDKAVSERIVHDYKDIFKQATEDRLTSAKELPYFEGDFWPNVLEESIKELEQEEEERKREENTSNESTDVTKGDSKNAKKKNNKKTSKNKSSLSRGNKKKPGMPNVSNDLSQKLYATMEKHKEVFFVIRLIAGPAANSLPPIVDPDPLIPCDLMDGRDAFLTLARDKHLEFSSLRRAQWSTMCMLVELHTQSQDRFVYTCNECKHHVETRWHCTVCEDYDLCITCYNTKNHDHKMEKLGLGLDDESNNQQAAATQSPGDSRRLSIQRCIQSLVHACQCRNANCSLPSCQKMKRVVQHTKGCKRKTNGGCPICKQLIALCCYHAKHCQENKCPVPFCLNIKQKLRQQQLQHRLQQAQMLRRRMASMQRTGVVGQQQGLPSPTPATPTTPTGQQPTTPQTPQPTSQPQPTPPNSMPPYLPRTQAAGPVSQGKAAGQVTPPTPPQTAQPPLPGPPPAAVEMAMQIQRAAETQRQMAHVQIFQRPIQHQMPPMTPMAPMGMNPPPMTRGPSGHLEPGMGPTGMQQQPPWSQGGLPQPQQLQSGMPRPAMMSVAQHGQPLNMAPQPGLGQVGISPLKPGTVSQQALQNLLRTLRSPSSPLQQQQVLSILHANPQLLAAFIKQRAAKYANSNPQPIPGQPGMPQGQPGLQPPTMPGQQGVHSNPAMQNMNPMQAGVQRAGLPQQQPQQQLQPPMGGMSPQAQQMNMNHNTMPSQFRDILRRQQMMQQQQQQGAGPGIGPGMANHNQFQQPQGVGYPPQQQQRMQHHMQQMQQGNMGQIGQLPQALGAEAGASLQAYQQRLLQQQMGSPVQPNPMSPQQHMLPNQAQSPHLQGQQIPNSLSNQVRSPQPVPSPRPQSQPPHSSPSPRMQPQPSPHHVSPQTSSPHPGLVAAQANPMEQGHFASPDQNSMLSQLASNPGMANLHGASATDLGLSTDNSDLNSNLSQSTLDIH
How it was run: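 P300/CBP levels quantified by chemiluminescent immunoblot band densitometry, normalized against tubulin or vinculin loading controls. Lysates came from LNCaP or 22RV1 cells exposed to compounds or DMSO vehicle for indicated times.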

Row | Compound | IC50 (LNCaP cells) [nM] | inhibition at 0.01 µM (P300) [%]
1 | CNC(=O)N1CCc2c(c(N3CCCc4cc(-c5cnn(CC(=O)NCCCCCCNc6cccc7c6C(=O)N(C6CCC(=O)NC6=O)C7=O)c5)c(C(F)F)cc43)nn2C2CCOCC2)C1 (stereo not drawn) [P-041, 3-(7-(difluoromethyl)-6-(1-(2-((6-((2-(2,6-dioxopiperidin-3-yl)-1,3-dioxoisoindolin-4-yl)amino)hexyl)amino)-2-oxoethyl)-1H-pyrazol-4-yl)-3,4-dihydroquinolin-1(2H)-yl)-N-methyl-1-(tetrahydro-2H-pyran-4-yl)-1,4,6,7-tetrahydro-5H-pyrazolo[4,3-c]pyridine-5-carboxamide] | 10.6 | 20 to 50
2 | CNC(=O)N1CCc2c(c(N3CCCc4cc(-c5cnn(CC(=O)NCCCCCCCCNc6cccc7c6C(=O)N(C6CCC(=O)NC6=O)C7=O)c5)c(C(F)F)cc43)nn2C2CCOCC2)C1 (stereo not drawn) [P-043, 3-(7-(difluoromethyl)-6-(1-(2-((8-((2-(2,6-dioxopiperidin-3-yl)-1,3-dioxoisoindolin-4-yl)amino)octyl)amino)-2-oxoethyl)-1H-pyrazol-4-yl)-3,4-dihydroquinolin-1(2H)-yl)-N-methyl-1-(tetrahydro-2H-pyran-4-yl)-1,4,6,7-tetrahydro-5H-pyrazolo[4,3-c]pyridine-5-carboxamide] | 15.4 | 20 to 50
3 | CNC(=O)N1CCc2c(c(N3CCCc4cc(-c5cnn(CC(=O)NCCC(=O)N[C@H](C(=O)N6C[C@H](O)C[C@H]6C(=O)NCc6ccc(-c7scnc7C)cc6)C(C)(C)C)c5)c(C(F)F)cc43)nn2C2CCOCC2)C1 [P-045, 3-(7-(Difluoromethyl)-6-(1-(2-((3-(((S)-1-((2S,4R)-4-hydroxy-2-((4-(4-methylthiazol-5-yl)benzyl)carbamoyl)pyrrolidin-1-yl)-3,3-dimethyl-1-oxobutan-2-yl)amino)-3-oxopropyl)amino)-2-oxoethyl)-1H-pyrazol-4-yl)-3,4-dihydroquinolin-1(2H)-yl)-N-methyl-1-(tetrahydro-2H-pyran-4-yl)-1,4,6,7-tetrahydro-5H-pyrazolo[4,3-c]pyridine-5-carboxamide] | > 10000 | < 20
4 | CNC(=O)N1CCc2c(c(N3CCCc4cc(-c5cnn(CC(=O)NCCCCC(=O)N[C@H](C(=O)N6C[C@H](O)C[C@H]6C(=O)NCc6ccc(-c7scnc7C)cc6)C(C)(C)C)c5)c(C(F)F)cc43)nn2C2CCOCC2)C1 [P-046, 3-(7-(Difluoromethyl)-6-(1-(2-((5-(((S)-1-((2S,4R)-4-hydroxy-2-((4-(4-methylthiazol-5-yl)benzyl)carbamoyl)pyrrolidin-1-yl)-3,3-dimethyl-1-oxobutan-2-yl)amino)-5-oxopentyl)amino)-2-oxoethyl)-1H-pyrazol-4-yl)-3,4-dihydroquinolin-1(2H)-yl)-N-methyl-1-(tetrahydro-2H-pyran-4-yl)-1,4,6,7-tetrahydro-5H-pyrazolo[4,3-c]pyridine-5-carboxamide] | 9040 | < 20

Second part, the molecule after the results:

Row | IC50 (LNCaP cells) [nM] | inhibition at 0.01 µM (P300) [%] | Compound
5 | 39 | < 20 | CNC(=O)N1CCc2c(c(N3CCCc4cc(-c5cnn(CC(=O)NCCCCCCCNc6cccc7c6C(=O)N(C6CCC(=O)NC6=O)C7=O)c5)c(C(F)F)cc43)nn2C2CCOCC2)C1 (stereo not drawn) [P-042]
6 | > 10000 | < 20 | CNC(=O)N1CCc2c(c(N3CCCc4cc(-c5cnn(CC(=O)NCC(=O)N[C@H](C(=O)N6C[C@H](O)C[C@H]6C(=O)NCc6ccc(-c7scnc7C)cc6)C(C)(C)C)c5)c(C(F)F)cc43)nn2C2CCOCC2)C1 [P-044]
